Data: US20220265817A1, “THERAPEUTIC COMPOSITIONS AND METHODS FOR TREATING HEPATITIS B” (priority 2017, published 2022)
pEC50: −log10 of the molar value. Like-named read-outs stand apart in the source and are kept apart here.

Key:
[1] = tested on: HBV rcDNA in HepDE19 cells; assay: HepDE19 cell culture system, rcDNA quantitation using bDNA assay, MacSynergy II; format: cell-based, human hepatoma cell line; details: for AVERAGE % INHIBITION: GLS-4 0 μM; for AVERAGE % INHIBITION (rcDNA): 4 replicates, SIRNA-NP ng/mL by row: r8 25, r9 8.333, r10 2.778, r11 0.926, r12 0.309, r13 0; for ADDITIVE INHIBITION: expected from additive interaction, SIRNA-NP ng/mL by row: r30 25, r31 8.333, r32 2.778, r33 0.926, r34 0.309, r35 0
Method: In vitro combination studies were conducted using the method of Prichard and Shipman (Prichard M N, and Shipman C Jr., Antiviral Research, 1990, 14 (4-5), 181-205; and Prichard M N, et. al., MacSynergy II). HepDE19 cell culture system is a HepG2 (human hepatocarcinoma) derived cell line that supports HBV DNA replication and cccDNA formation in a tetracycline (Tet)-regulated manner and produces HBV rcDNA and a detectable reporter molecule dependent on the production and maintenance of cccDNA (Guo et al 2007. J. Virol 81:12472-12484). HepDE19 (50,000 cells/well) were plated in 96 well collagen-coated tissue-culture treated microtiter plates in DMEM/F12 medium supplemented with 10% fetal bovine serum, 1% penicillin-streptomycin and 1 μg/ml tetracycline and incubated in a humidified incubator at 37° C. and 5% CO2 overnight. Next day, the cells were switched to fresh medium without tetracycline and incubated for 4 hrs at 37° C. and 5% CO2. […] The two inhibitors were tested both singly as well as in combinations in a checkerboard fashion such that each concentration of inhibitor A was combined with each concentration of inhibitor B to determine their combination effects on inhibition of rcDNA production. Following a 7 day-incubation of cells with compound combinations, the level of rcDNA present in the inhibitor-treated wells was measured using a Quantigene 2.0 bDNA assay kit (Affymetrix, Santa Clara, Calif.) with HBV specific custom probe set and manufacturers instructions. […] The RLU data from the single compound treated cells were analyzed using XL-Fit module in Microsoft Excel to determine EC50 values using a 4-parameter curve fitting algorithm. Concurrently, the effect of compounds on cell viability was assessed using replicate plates, plated at a density of 5,000 cells/well and incubated for 4 days, to determine the ATP content as a measure of cell viability using the cell-titer glo reagent (CTG; Promega Corporation, Madison, Wis.) as per manufacturer's instructions.
In vitro combination studies were conducted using the method of Prichard and Shipman (Prichard M N, Shipman C, Jr., Antiviral Res, 14, 181-205 (1990)). The HepDE19 cell line was developed as described in Guo et al. (Guo et al., J Virol, 81, 12472-12484 (2007)). It is a human hepatoma cell line stably transfected with the HBV genome, and which can express HBV pregenomic RNA and support HBV rcDNA (relaxed circular DNA) synthesis in a tetracycline-regulated manner. HepDE19 cells were plated in 96 well tissue-culture treated microtiter plates in DMEM/F12 medium supplemented with 10% fetal bovine serum+1% penicillin-streptomycin without tetracycline and incubated in a humidified incubator at 37° C. and 5% CO2 overnight. […] The two inhibitors were tested both singly as well as in combinations in a checkerboard fashion such that each concentration of inhibitor A was combined with each concentration of inhibitor B to determine their combination effects on inhibition of rcDNA production. Following a 48 hour-incubation, the level of rcDNA present in the inhibitor-treated wells was measured using a bDNA assay (Affymetrix) with HBV specific custom probe set and manufacturers instructions. […] Concurrently, the effect of inhibitor combinations on cell viability was assessed using replicate plates that were used to determine the ATP content as a measure of cell viability using the Cell-TiterGlo reagent (Promega) as per manufacturer's instructions.
In vitro combination studies were conducted using the method of Prichard and Shipman (1990) (Prichard M N, Shipman C, Jr. 1990. A three-dimensional model to analyze drug-drug interactions. Antiviral Res 14:181-205 AND Prichard M N. 1992. MacSynergy II, University of Michigan).

hepatitis B virus (HBV) = assay: Humanized liver chimeric mouse model of chronic HBV infection, serum HBV DNA by quantitative PCR; format: in vivo; details: mean
Method: This work was conducted in a well-established humanized liver chimeric mouse model of chronic hepatitis B virus (HBV) infection (Tsuge et al., Hepatology, 42(5), 1046-54 (2005)). A persistent level of HBV infection was established in the animals prior to the treatment phase which started at Day 0.
The anti-HBV effects were assessed based on serum HBsAg levels using the GS HBsAg EIA 3.0 enzyme linked immunosorbent assay kit from Bio-Rad Laboratories as per manufacturer instructions; and serum HBV DNA levels measured from total extracted DNA using a quantitative PCR assay (primer/probe sequences from Tanaka et al., Journal of Medical Virology, 72, 223-229 (2004)).

[2] = Day 0 (start of treatment), SEM in the line below
[3] = Day 7, Compound 3 oral 100 mg/kg twice daily, SIRNA-NP iv 3 mg/kg every 2 weeks, ETV oral 1.2 μg/kg daily, pegIFN α-2a sc 30 μg/kg twice a week
[4] = Hepatitis B virus, HepDE19, read-out: ADDITIVE INHIBITION
[5] = Hepatitis B virus, HepDE19, read-out: AVERAGE % INHIBITION (rcDNA)

**Q.** With CC[C@@H](C)NS(=O)(=O)c1ccc(F)c(C(=O)Nc2ccc(F)c(F)c2)c1 [Compound 3] as the compound, how does the “AVERAGE % INHIBITION” value ([1]; COMPOUND 3 0.040 μM) read?
**A.** Its value is 11.14%.

**Q.** What about the “AVERAGE % INHIBITION” value ([1]; COMPOUND 3 0.110 μM) of the same compound?
**A.** Its value is 19.99%.

**Q.** And the “AVERAGE % INHIBITION” value ([1]; COMPOUND 3 0.330 μM)?
**A.** Its value is 56.68%.

**Q.** What about the “AVERAGE % INHIBITION” value ([1]; COMPOUND 3 1.000 μM) of the same compound?
**A.** Its value is 86.87%.

**Q.** What about the “AVERAGE % INHIBITION” value ([1]; COMPOUND 3 3.000 μM) of the same compound?
**A.** The value was 94.49%.

**Q.** And the pEC50 ([1]; Hepatitis B virus, HepDE19, rcDNA, bDNA assay, DE19 cells, read-out: Inhibitor A EC50)?
**A.** The pEC50 was 6.57.

**Q.** What about the pEC50 ([1]; Hepatitis B virus, HepDE19, rcDNA by bDNA assay, single agent, read-out: INHIBITOR A EC50) of the same compound?
**A.** Its pEC50 is 6.34.

**Q.** And the “Serum HBV DNA” value (hepatitis B virus (HBV); [2])?
**A.** The value was 1.70E+08 Copies/mL.

**Q.** What about the “Serum HBV DNA” value (hepatitis B virus (HBV); [3]) of the same compound?
**A.** The value was 1.33E+07 Copies/mL.

**Q.** What about the “Serum HBV DNA” value (hepatitis B virus (HBV); Day 14, same dosages) of the same compound?
**A.** Its value is 1.28E+07 Copies/mL.

**Q.** What about the “Serum HBV DNA” value (hepatitis B virus (HBV); Day 21, same dosages) of the same compound?
**A.** Its value is 1.02E+07 Copies/mL.

**Q.** What about the “Serum HBV DNA” value (hepatitis B virus (HBV); Day 28, same dosages) of the same compound?
**A.** Its value is 1.17E+07 Copies/mL.

**Q.** Which results are given for C=C1[C@H](CO)[C@@H](O)C[C@@H]1n1cnc2c(=O)[nH]c(N)nc21 [Entecavir]?
**A.** AVERAGE % INHIBITION (rcDNA) ([1]; ETV 0.016 nM): −43.72%; AVERAGE % INHIBITION (rcDNA) ([1]; ETV 0.031 nM): −50.07%; AVERAGE % INHIBITION (rcDNA) ([1]; ETV 0.063 nM): −30.26%; AVERAGE % INHIBITION (rcDNA) ([1]; ETV 0.125 nM): −23.47%; AVERAGE % INHIBITION (rcDNA) ([1]; ETV 0.250 nM): −21.25%; AVERAGE % INHIBITION (rcDNA) ([1]; ETV 1.000 nM): 41.71%; AVERAGE % INHIBITION (rcDNA) ([1]; ETV 2.000 nM): 58.35%; AVERAGE % INHIBITION (rcDNA) ([1]; ETV 4.000 nM): 69.99%; pEC50 ([1]; Hepatitis B virus, HepDE19, rcDNA by bDNA assay, ETV, read-out: Inhibitor B EC50): 8.75; ADDITIVE INHIBITION ([1]; ETV 0.015625 nM): −43.72%; ADDITIVE INHIBITION ([1]; ETV 0.03125 nM): −50.07%; ADDITIVE INHIBITION ([1]; ETV 0.0625 nM): −30.26%; ADDITIVE INHIBITION ([1]; ETV 0.125 nM): −23.47%; ADDITIVE INHIBITION ([1]; ETV 0.25 nM): −21.25%; ADDITIVE INHIBITION ([1]; ETV 1 nM): 41.71%; ADDITIVE INHIBITION ([1]; ETV 2 nM): 58.35%; ADDITIVE INHIBITION ([1]; ETV 4 nM): 69.99%; Serum HBV DNA (hepatitis B virus (HBV); [2]): 1.48E+08 Copies/mL; Serum HBV DNA (hepatitis B virus (HBV); [3]): 2.35E+07 Copies/mL; Serum HBV DNA (hepatitis B virus (HBV); Day 14, same dosages): 1.38E+07 Copies/mL; Serum HBV DNA (hepatitis B virus (HBV); Day 21, same dosages): 1.35E+07 Copies/mL; Serum HBV DNA (hepatitis B virus (HBV); Day 28, same dosages): 9.33E+06 Copies/mL

**Q.** Which “SYNERGY PLOT (99.9%) […]. 96%” value [1] does the source give for CC(C)OC(=O)OCOP(=O)(CO[C@H](C)Cn1cnc2c(N)ncnc21)OCOC(=O)OC(C)C.O=C(O)/C=C/C(=O)O [TDF, tenofovir disoproxil fumarate, reference compound] here?
**A.** Its value is 0.

**Q.** And the inhibition at 0.004 µM ([1]; Hepatitis B virus, HepDE19)?
**A.** The inhibition at 0.004 µM was -5.27%.

**Q.** And the inhibition at 0.008 µM ([1]; Hepatitis B virus, HepDE19)?
**A.** Its inhibition at 0.008 µM is 0.67%.

**Q.** And the inhibition at 0.016 µM ([1]; Hepatitis B virus, HepDE19)?
**A.** Its inhibition at 0.016 µM is 2.82%.

**Q.** And the inhibition at 0.031 µM ([1]; Hepatitis B virus, HepDE19)?
**A.** Its inhibition at 0.031 µM is 6.57%.

**Q.** What about the inhibition at 0.063 µM ([1]; Hepatitis B virus, HepDE19) of the same compound?
**A.** The inhibition at 0.063 µM was 41.7%.

**Q.** What about the inhibition at 0.003906 µM [1, 4] of the same compound?
**A.** Its inhibition at 0.003906 µM is -5.27%.

**Q.** And the inhibition at 0.00781 µM [1, 4]?
**A.** Its inhibition at 0.00781 µM is 0.67%.

**Q.** And the inhibition at 0.01563 µM [1, 4]?
**A.** The inhibition at 0.01563 µM was 2.82%.

**Q.** And the inhibition at 0.03125 µM [1, 4]?
**A.** The inhibition at 0.03125 µM was 6.57%.

**Q.** And the inhibition at 0.0625 µM [1, 4]?
**A.** Its inhibition at 0.0625 µM is 41.7%.

**Q.** And the inhibition at 0.125 µM [1, 4]?
**A.** The inhibition at 0.125 µM was 66.1%.

**Q.** What about the inhibition at 0.25 µM [1, 4] of the same compound?
**A.** Its inhibition at 0.25 µM is 81.5%.

**Q.** What about the inhibition at 0.5 µM [1, 4] of the same compound?
**A.** Its inhibition at 0.5 µM is 90.8%.

**Q.** What about the inhibition at 1 µM [1, 4] of the same compound?
**A.** The inhibition at 1 µM was 94.5%.

**Q.** What about the inhibition at 0.125 µM [1, 5] of the same compound?
**A.** Its inhibition at 0.125 µM is 66.1%.

**Q.** And the inhibition at 0.25 µM [1, 5]?
**A.** Its inhibition at 0.25 µM is 81.5%.

**Q.** What about the inhibition at 0.5 µM [1, 5] of the same compound?
**A.** The inhibition at 0.5 µM was 90.8%.

**Q.** What about the inhibition at 1 µM [1, 5] of the same compound?
**A.** Its inhibition at 1 µM is 94.5%.

**Q.** And the pEC50 ([1]; Hepatitis B virus, HepDE19, read-out: Inhibitor B EC50)?
**A.** The pEC50 was 7.05.

**Q.** What about the pEC50 ([1]; Hepatitis B virus, HepDE19, rcDNA by bDNA assay, single agent, read-out: INHIBITOR B EC50) of the same compound?
**A.** Its pEC50 is 7.06.
